Reference: PubChem BioAssay (NCI)
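How tested: cells in 96-well plates exposed to compound for 48 hours at five concentrations. TGI: concentration producing complete growth inhibition.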

Legend:
Assay in all cases: DTP human tumour cell line panel, 48 h
A498 renal = tested on: A498 renal
ACHN renal = tested on: ACHN renal
HCC-2998 colon = tested on: HCC-2998 colon
HL-60(TB) leukemia = tested on: HL-60(TB) leukemia
LOX IMVI melanoma = tested on: LOX IMVI melanoma
MALME-3M melanoma = tested on: MALME-3M melanoma
MDA-MB-231 breast = tested on: MDA-MB-231 breast
MDA-MB-435 = tested on: MDA-MB-435
NCI-H460 lung = tested on: NCI-H460 lung
OVCAR-3 ovarian = tested on: OVCAR-3 ovarian
PC-3 prostate = tested on: PC-3 prostate
SF-295 CNS = tested on: SF-295 CNS
SF-539 CNS = tested on: SF-539 CNS
SK-MEL-2 melanoma = tested on: SK-MEL-2 melanoma
SK-MEL-5 melanoma = tested on: SK-MEL-5 melanoma
SR leukemia = tested on: SR leukemia
U251 CNS = tested on: U251 CNS
UO-31 renal = tested on: UO-31 renal

Structure (SMILES) | TGI (A498 renal) [µM] | TGI (ACHN renal) [µM] | TGI (HCC-2998 colon) [µM] | TGI (HL-60(TB) leukemia) [µM] | TGI (LOX IMVI melanoma) [µM] | TGI (MALME-3M melanoma) [µM] | TGI (MDA-MB-231 breast) [µM] | TGI (MDA-MB-435) [µM] | TGI (NCI-H460 lung) [µM] | TGI (OVCAR-3 ovarian) [µM] | TGI (PC-3 prostate) [µM] | TGI (SF-295 CNS) [µM] | TGI (SF-539 CNS) [µM] | TGI (SK-MEL-2 melanoma) [µM] | TGI (SK-MEL-5 melanoma) [µM] | TGI (SR leukemia) [µM] | TGI (U251 CNS) [µM] | TGI (UO-31 renal) [µM]
O=c1[nH]nc(-c2ccc(F)cc2)cc1-c1ccccc1 | > 100 | > 100 | > 100 | > 100 | > 100 | > 100 | > 100 | > 100 | > 100 | > 100 | > 100 | > 100 | > 100 | > 100 | > 100 | > 100 | > 100 | 
COc1ccc(/C=C/C(=O)Oc2ccccc2OC)cc1 | > 100 | > 59.4 | 43.3 | > 32.5 | > 70.7 | > 100 | 18 | > 80.5 | > 100 | > 100 | > 100 | 10.7 | > 100 | > 95.3 | > 100 | 32.3 | > 100 | > 100
Cc1cc2nnc(C(N)=O)c(N)c2cc1C | > 100 | > 100 | > 100 | > 100 | > 100 | > 100 | > 100 | > 100 | > 100 | > 100 | > 100 | > 100 | > 100 | > 100 | > 100 | > 100 | > 100 | > 100
Cc1cc(NS(=O)(=O)c2ccc(Nc3c4ccccc4nc4c(C(=O)NCCO)cccc34)cc2)no1 | > 100 | > 100 | > 100 | > 100 | > 100 | 70.4 | > 100 | > 100 | > 100 | > 100 | > 100 | > 100 |  | 74 | > 100 | > 100 | > 100 | 99.7
CC(=O)c1c(O)n(-c2ccc(C)cc2)c(=O)c2c(N)n[nH]c12 | > 100 |  | > 100 | > 100 | > 100 | > 100 | > 100 | > 100 | > 100 | > 100 | > 100 |  | > 100 | > 100 | > 100 | > 100 | > 100 | > 100
COc1cc(OC)c(C2(c3c(OC(C)C)c(=O)c3=O)SCCCS2)cc1OC | > 100 | > 100 | > 100 | > 100 | > 100 | > 100 | > 100 | > 100 | > 100 | > 100 | > 100 | > 100 | > 100 | > 100 | > 100 | > 100 | > 100 | > 100
CC(C)=C[C@@H]1O[C@H](O)[C@@H]([C@H]2CC[C@@]3(C)[C@@H]4CC[C@H]5C(C)(C)C(=O)CC[C@@]56C[C@@]46CC[C@]23C)[C@@H]1O | 32.8 | 32 | 33.3 | 30.2 |  | 37.7 | 37.1 | 41.7 | 35.9 | 27.3 | 29.3 | 31.9 | 28 | 42.2 | 41.8 | 25.8 | 34.8 | 28.6
Cc1cc(N(CCC#N)CCC#N)ccc1/C(N=Nc1ccc([N+](=O)[O-])cc1)=N\NC(=O)c1ccccc1 | 74 | > 100 | > 100 | > 100 |  | > 100 | > 100 | > 100 | > 100 | > 100 | > 100 | > 100 | 92.9 | > 100 | > 100 | > 100 | > 100 | > 100
NS(=O)(=O)c1nnc(NS(=O)(=O)c2ccc([N+](=O)[O-])cc2)s1 | > 100 | > 100 | > 100 | > 100 | > 100 | > 100 | > 100 | > 100 | > 100 | > 100 | > 100 | > 100 | > 100 | > 100 | > 100 | > 100 | > 100 | > 100
COC(=O)CNC(=O)CCC(C)[C@H]1CCC2C3C(C[C@H](OC(C)=O)[C@@]21C)[C@@]1(C)CCC2(C[C@H]1C[C@H]3OC(C)=O)OOC1(CCCCC1)OO2 (some centres undefined) | 34.4 | 3.85 | 5.98 | 5.1 |  | 6.22 | 3.48 | 4.06 | 3.63 | 3.77 | 6.29 | 18.4 | 3.75 | 6.49 | 8.12 | 4.21 | 3.41 | 3.3
N#Cc1c(-c2ccc([N+](=O)[O-])cc2)cc(-c2ccc(Nc3ccnc4cc(Cl)ccc34)cc2)nc1N | 51.7 | > 72.6 | 43.2 | 26 | 2.9 | 39.9 | 33.7 | 17.5 | > 73.2 | 15.8 | 37.4 | 37.6 | 55.4 | 43.5 | > 55.4 | 2.48 | 2.82 | 42.8
O=C1C(Cl)=C(NCCF)C(=O)c2ncccc21 | > 10 | 5.22 | 2.71 | > 10 | 2.26 | 2.98 | 4 | 0.408 | 3.73 | 5.45 | 3.09 | 3.21 | 3.23 | 4.23 | 2.56 | > 10 | 2.8 | 2.6
COC(=O)[C@H](Cc1c[nH]c2ccccc12)NC(=O)c1ccccc1I | 37.4 | 30.8 | 82.6 | 54 | 44.8 | 35.8 | > 100 | 84.5 | > 100 | 33.1 | 59.3 | > 100 |  | 45.8 | 29.6 | 58.7 | > 100 | 33.4
Nc1c2cc3ccc2nc2ccc(cc12)OCCOCCOCCOCCOCCOCCO3 | > 10 | > 10 | > 10 | > 10 | > 10 | > 10 | > 10 | > 10 | > 10 | > 10 | > 10 | > 10 | > 10 | > 10 | > 10 | > 10 | > 10 | 
COc1cccc2cc(C(=O)NC34CC5CC(CC(C5)C3)C4)c(=N)oc12 | > 100 | > 100 | > 100 | 29.6 | > 100 | > 100 | > 100 | > 100 | > 100 | > 73.2 | > 100 | > 100 | > 56.1 | > 100 | > 100 | > 47.4 | > 100 | 7.63
NC(N)=N/N=C/c1c(-c2cc([N+](=O)[O-])c(Cl)cc2Cl)nc2n1CCS2 | > 100 | > 100 | 5.4 | 41 | > 100 | 57.9 | > 100 | 74.3 | > 100 | > 100 | > 100 | 70.4 | > 100 | 9.45 | > 100 | 3.43 | > 100 | 38.2
Cc1ccc(C(=O)N/N=C2/C(=O)c3c4ccccc4cc4cccc2c34)cc1 | > 100 | 39.3 | > 100 | > 100 | > 100 | 44.4 | > 100 | > 73.4 | > 77.2 | 66.6 | > 100 | 43.2 | > 92.9 | > 100 | > 70.7 | > 100 | > 67.3 | > 100
COc1ccc(C2C3=C(COC3=O)OC(C)(C)Oc3cc4c(cc32)OCO4)cc1OC (centres undefined) | 63.8 | > 100 | > 100 | > 87.9 | > 100 | > 100 | > 84.1 | 41.3 | > 100 | > 100 | 72.4 | 88.4 | 72.6 | > 100 | > 74.3 | > 100 | > 100 | > 100
C=CC[C@]1(C2=NC(C)(C)CO2)c2ccccc2-c2ccccc2[C@H]1C(C)=O | 21.1 | > 45.9 | 20.7 | 15.8 | 25.8 | 21 | 30 | 14.7 | 19.3 | 9.08 | 27.7 | 19.1 | 25.1 | 15.4 | 12.7 | 14 | 21.6 | 28
C=CCn1c(-c2ccc(Cl)cc2)csc1=Nc1ccccc1OC | > 100 | > 100 | > 100 | 86.3 | > 100 | > 100 | > 100 | > 100 | > 100 | > 100 | > 100 | > 79.8 | > 100 | > 100 | 8.11 | > 100 | > 100 | > 100
O=C1NC(=Nc2ccccc2)C(=Nc2ccccc2)N1c1ccccc1 | 31 | 30.6 | 30.7 | 52.8 | 30.1 | 31.6 | 35.6 | 29.7 | 30.8 |  | 27.6 | 29.4 | 31.5 | 29.3 | 29.7 | 51.1 | 28.9 | 30.1
C#CC(O)/C=C/C(O)CCCC(O)CC#CC(O)C#CCCCCC(O)/C=C/CCCC(O)/C=C/CCCCCCCCCCCCCC(O)C(O)C#CC(=O)O (centres undefined) | > 25 | > 25 | > 25 | > 25 | > 25 | > 25 | > 25 | > 25 | > 25 |  | > 25 | > 25 |  | > 25 | > 25 | > 25 | > 25 | > 25
C=C(C)C(=O)OC1C[C@H](COC(C)=O)C2CC=C(CO)C2C2OC(=O)C(=C)[C@H]12 (some centres undefined) | > 100 | > 100 | > 100 | 76 | > 100 | 44.3 | > 100 | > 100 | > 100 | > 100 | > 100 | > 100 | > 100 | > 100 | > 100 | 65.2 | > 100 | > 100
C#C[C@]1(O)CC[C@H]2[C@@H]3CCC4=C/C(=N/OC(=O)c5cccc6c(=O)c7ccccc7[nH]c56)CCC4[C@H]3CC[C@@]21CC (some centres undefined) | > 100 | > 100 | > 90.9 | 11.7 | > 56.6 | > 100 | > 100 | > 100 | > 100 | > 61.1 | > 96 | > 100 |  | > 100 | > 53.1 | 35.7 | > 100 | > 84.3
